Experimental data as given in ChEMBL document CHEMBL5726876, “NHE3-binding compounds and methods for inhibiting phosphate transport” (2019).

Assay: Cell-based activity under Prompt Conditions: Cell-based activity under Prompt Conditions. Rat or human NHE3-mediated Na+-dependent H+ antiport was measured using a modification of the pH sensitive dye method originally reported by Paradiso (PNAS USA. 81:7436-7440, 1984). Opossum kidney (OK) cells were obtained from the ATCC and propagated per their instructions. The rat NHE3 gene (GenBank M85300) or the human NHE3 gene (GenBank NM_004174.1) was introduced into OK cells via electroporation, and cells were seeded into 96 well plates and grown overnight. Medium was aspirated from the wells, cells were washed twice with NaCl-HEPES buffer (100 mM NaCl, 50 mM HEPES, 10 mM glucose, 5 mM KCl, 2 mM CaCl2, 1 mM MgCl2, pH 7.4), then incubated for 30 min at room temperature with NH4Cl-HEPES buffer (20 mM NH4Cl, 80 mM NaCl, 50 mM HEPES, 5 mM KCl, 2 mM CaCl2, 1 mM MgCl2, pH 7.4) containing 5 μM bis(acetoxymethyl) 3,3′-(3′,6′-bis(acetoxymethoxy)-5-((acetoxymethoxy)carbonyl)-3-oxo-3H-spiro[isobenzofuran-1,9′-xanthene]-2′,7′-diyl)dipropanoate (BCECF-AM).Cells were washed twice with Ammonium free, Na+-free HEPES (100 mM choline, 50 mM HEPES, 10 mM glucose, 5 mM KCl, 2 mM CaCl2, 1 mM MgCl2, pH 7.4) and incubated in the same buffer for 10 minutes at room temperature to lower intracellular pH. […] Initial rates were plotted as the average 2 or more replicates, and pIC50 values were estimated using GraphPad Prism.

SMILES	IC50
CN1Cc2c(Cl)cc(Cl)cc2[C@H](c2cccc(S(=O)(=O)NCCOCCOCCOCCNC(=O)CC(CC(=O)NCCOCCOCCOCCNS(=O)(=O)c3cccc([C@@H]4CN(C)Cc5c(Cl)cc(Cl)cc54)c3)C(=O)NCCOCCOCCOCCNS(=O)(=O)c3cccc([C@@H]4CN(C)Cc5c(Cl)cc(Cl)cc54)c3)c2)C1	31.6 nM
CN1Cc2c(Cl)cc(Cl)cc2[C@H](c2cccc(S(=O)(=O)NCCOCCOCCOCCn3cc(CN(Cc4cn(CCOCCOCCOCCNS(=O)(=O)c5cccc([C@@H]6CN(C)Cc7c(Cl)cc(Cl)cc76)c5)nn4)Cc4cnnn4CCOCCOCCOCCNS(=O)(=O)c4cccc([C@@H]5CN(C)Cc6c(Cl)cc(Cl)cc65)c4)nn3)c2)C1	5010 nM
CN1Cc2c(Cl)cc(Cl)cc2[C@H](c2cccc(S(=O)(=O)NCCOCCOCCNC(=O)CN(CCOCCOCCN(CC(=O)NCCOCCOCCNS(=O)(=O)c3cccc([C@@H]4CN(C)Cc5c(Cl)cc(Cl)cc54)c3)CC(=O)NCCOCCOCCNS(=O)(=O)c3cccc([C@@H]4CN(C)Cc5c(Cl)cc(Cl)cc54)c3)CC(=O)NCCOCCOCCNS(=O)(=O)c3cccc([C@@H]4CN(C)Cc5c(Cl)cc(Cl)cc54)c3)c2)C1	1580 nM
CN1Cc2c(Cl)cc(Cl)cc2[C@H](c2cccc(S(=O)(=O)NCCOCCOCCOCCNC(=O)CC(O)(CC(=O)NCCOCCOCCOCCNS(=O)(=O)c3cccc([C@@H]4CN(C)Cc5c(Cl)cc(Cl)cc54)c3)C(=O)NCCOCCOCCOCCNS(=O)(=O)c3cccc([C@@H]4CN(C)Cc5c(Cl)cc(Cl)cc54)c3)c2)C1	100 nM
NCCOCCOCCNS(=O)(=O)c1ccc(O[C@H]2c3ccccc3C[C@@H]2N2CCCCC2)cc1	447 nM
CN1Cc2c(Cl)cc(Cl)cc2[C@H](c2cccc(S(=O)(=O)NCCOCCOCCOCCNC(=O)CN3CCN(CC(=O)NCCOCCOCCOCCNS(=O)(=O)c4cccc([C@@H]5CN(C)Cc6c(Cl)cc(Cl)cc65)c4)CCN(CC(=O)NCCOCCOCCOCCNS(=O)(=O)c4cccc([C@@H]5CN(C)Cc6c(Cl)cc(Cl)cc65)c4)CCN(CC(=O)NCCOCCOCCOCCNS(=O)(=O)c4cccc([C@@H]5CN(C)Cc6c(Cl)cc(Cl)cc65)c4)CC3)c2)C1	501 nM
CN1Cc2c(Cl)cc(Cl)cc2[C@H](c2cccc(S(=O)(=O)NCCOCCOCCOCCNC(=O)CN(CC(=O)NCCOCCOCCOCCNS(=O)(=O)c3cccc([C@@H]4CN(C)Cc5c(Cl)cc(Cl)cc54)c3)CC(=O)NCCOCCOCCOCCNS(=O)(=O)c3cccc([C@@H]4CN(C)Cc5c(Cl)cc(Cl)cc54)c3)c2)C1	79.4 nM
CN1Cc2c(Cl)cc(Cl)cc2[C@H](c2cccc(S(=O)(=O)NCCOCCOCCNC(=O)CN(CC(=O)NCCOCCOCCNS(=O)(=O)c3cccc([C@@H]4CN(C)Cc5c(Cl)cc(Cl)cc54)c3)CC(=O)NCCOCCOCCNS(=O)(=O)c3cccc([C@@H]4CN(C)Cc5c(Cl)cc(Cl)cc54)c3)c2)C1	501 nM
CN1Cc2c(Cl)cc(Cl)cc2[C@H](c2cccc(S(=O)(=O)NCCOCCOCCNC(=O)NCCCN(CCCNC(=O)NCCOCCOCCNS(=O)(=O)c3cccc([C@@H]4CN(C)Cc5c(Cl)cc(Cl)cc54)c3)CCCNC(=O)NCCOCCOCCNS(=O)(=O)c3cccc([C@@H]4CN(C)Cc5c(Cl)cc(Cl)cc54)c3)c2)C1	562 nM
CN1Cc2c(Cl)cc(Cl)cc2[C@H](c2cccc(S(=O)(=O)NCCOCCOCCNC(=O)CC(O)(CC(=O)NCCOCCOCCNS(=O)(=O)c3cccc([C@@H]4CN(C)Cc5c(Cl)cc(Cl)cc54)c3)C(=O)NCCOCCOCCNS(=O)(=O)c3cccc([C@@H]4CN(C)Cc5c(Cl)cc(Cl)cc54)c3)c2)C1	1000 nM
O=C(NCCCCNC(=O)NCCOCCOCCNS(=O)(=O)c1ccc(O[C@H]2c3cc(Cl)cc(Cl)c3C[C@@H]2N2CCCCC2)cc1)NCCOCCOCCNS(=O)(=O)c1ccc(O[C@H]2c3cc(Cl)cc(Cl)c3C[C@@H]2N2CCCCC2)cc1	< 10000 nM
CN1Cc2c(Cl)cc(Cl)cc2[C@H](c2cccc(S(=O)(=O)NCCOCCOCCNC(=O)NCCN(CCNC(=O)NCCOCCOCCNS(=O)(=O)c3cccc([C@@H]4CN(C)Cc5c(Cl)cc(Cl)cc54)c3)C(=O)CCCCCCCCCCC(=O)N(CCNC(=O)NCCOCCOCCNS(=O)(=O)c3cccc([C@@H]4CN(C)Cc5c(Cl)cc(Cl)cc54)c3)CCNC(=O)NCCOCCOCCNS(=O)(=O)c3cccc([C@@H]4CN(C)Cc5c(Cl)cc(Cl)cc54)c3)c2)C1	< 10000 nM
CN1Cc2c(Cl)cc(Cl)cc2[C@H](c2cccc(S(=O)(=O)NCCOCCOCCNC(=O)CN(CCN(CC(=O)O)CC(=O)NCCOCCOCCNS(=O)(=O)c3cccc([C@@H]4CN(C)Cc5c(Cl)cc(Cl)cc54)c3)CC(=O)O)c2)C1	12.6 nM
CN1Cc2c(Cl)cc(Cl)cc2[C@H](c2cccc(S(=O)(=O)NCCOCCOCCNC(=O)CCN(CCC(=O)NCCOCCOCCNS(=O)(=O)c3cccc([C@@H]4CN(C)Cc5c(Cl)cc(Cl)cc54)c3)CCC(=O)NCCOCCOCCNS(=O)(=O)c3cccc([C@@H]4CN(C)Cc5c(Cl)cc(Cl)cc54)c3)c2)C1	3160 nM
CN1Cc2c(Cl)cc(Cl)cc2[C@H](c2cccc(S(=O)(=O)NCCOCCOCCOCCNC(=O)c3cc(C(=O)NCCOCCOCCOCCNS(=O)(=O)c4cccc([C@@H]5CN(C)Cc6c(Cl)cc(Cl)cc65)c4)cc(C(=O)NCCOCCOCCOCCNS(=O)(=O)c4cccc([C@@H]5CN(C)Cc6c(Cl)cc(Cl)cc65)c4)c3)c2)C1	126 nM
CN1Cc2c(Cl)cc(Cl)cc2[C@H](c2cccc(S(=O)(=O)NCCOCCOCCOCCNC(=O)CN3CCN(c4nc(N5CCN(CC(=O)NCCOCCOCCOCCNS(=O)(=O)c6cccc([C@@H]7CN(C)Cc8c(Cl)cc(Cl)cc87)c6)CC5)nc(N5CCN(CC(=O)NCCOCCOCCOCCNS(=O)(=O)c6cccc([C@@H]7CN(C)Cc8c(Cl)cc(Cl)cc87)c6)CC5)n4)CC3)c2)C1	251 nM

SMILES	IC50
CN1Cc2c(Cl)cc(Cl)cc2[C@H](c2cccc(S(=O)(=O)NCCOCCOCCOCCNC(=O)NCCN(CCNC(=O)NCCOCCOCCOCCNS(=O)(=O)c3cccc([C@@H]4CN(C)Cc5c(Cl)cc(Cl)cc54)c3)CCNC(=O)NCCOCCOCCOCCNS(=O)(=O)c3cccc([C@@H]4CN(C)Cc5c(Cl)cc(Cl)cc54)c3)c2)C1	126 nM
CN1Cc2c(Cl)cc(Cl)cc2[C@H](c2cccc(S(=O)(=O)NCCOCCOCCNC(=O)NCCN(CCNC(=O)NCCOCCOCCNS(=O)(=O)c3cccc([C@@H]4CN(C)Cc5c(Cl)cc(Cl)cc54)c3)CCNC(=O)NCCOCCOCCNS(=O)(=O)c3cccc([C@@H]4CN(C)Cc5c(Cl)cc(Cl)cc54)c3)c2)C1	2510 nM
CN1Cc2c(Cl)cc(Cl)cc2[C@H](c2cccc(S(=O)(=O)NCCOCCOCCOCCNC(=O)NCCN3CCN(c4nc(N5CCN(CCNC(=O)NCCOCCOCCOCCNS(=O)(=O)c6cccc([C@@H]7CN(C)Cc8c(Cl)cc(Cl)cc87)c6)CC5)nc(N5CCN(CCNC(=O)NCCOCCOCCOCCNS(=O)(=O)c6cccc([C@@H]7CN(C)Cc8c(Cl)cc(Cl)cc87)c6)CC5)n4)CC3)c2)C1	200 nM
NCCOCCOCCNS(=O)(=O)c1ccc(O[C@H]2c3cc(Cl)cc(Cl)c3C[C@@H]2N2CCCCC2)cc1	< 10000 nM
CN1Cc2c(Cl)cc(Cl)cc2[C@H](c2cccc(S(=O)(=O)NCCOCCOCCOCCNC(=O)CN(CCN(CC(=O)O)CC(=O)NCCOCCOCCOCCNS(=O)(=O)c3cccc([C@@H]4CN(C)Cc5c(Cl)cc(Cl)cc54)c3)CC(=O)O)c2)C1	10 nM
CN1Cc2c(Cl)cc(Cl)cc2[C@H](c2cccc(S(=O)(=O)NCCOCCOCCOCCNC(=O)CN(CCN(CC(=O)NCCOCCOCCOCCNS(=O)(=O)c3cccc([C@@H]4CN(C)Cc5c(Cl)cc(Cl)cc54)c3)CC(=O)NCCOCCOCCOCCNS(=O)(=O)c3cccc([C@@H]4CN(C)Cc5c(Cl)cc(Cl)cc54)c3)CCN(CC(=O)NCCOCCOCCOCCNS(=O)(=O)c3cccc([C@@H]4CN(C)Cc5c(Cl)cc(Cl)cc54)c3)CC(=O)NCCOCCOCCOCCNS(=O)(=O)c3cccc([C@@H]4CN(C)Cc5c(Cl)cc(Cl)cc54)c3)c2)C1	501 nM
CN1Cc2c(Cl)cc(Cl)cc2[C@H](c2cccc(S(=O)(=O)NCCOCCOCCOCCNC(=O)CN(CC(=O)NCCOCCOCCOCCNS(=O)(=O)c3cccc([C@@H]4CN(C)Cc5c(Cl)cc(Cl)cc54)c3)[C@@H]3CCCC[C@H]3N(CC(=O)NCCOCCOCCOCCNS(=O)(=O)c3cccc([C@@H]4CN(C)Cc5c(Cl)cc(Cl)cc54)c3)CC(=O)NCCOCCOCCOCNS(=O)(=O)c3cccc([C@@H]4CN(C)Cc5c(Cl)cc(Cl)cc54)c3)c2)C1	316 nM
CCOCCOCCOCCNC(=O)CN(C)CC(=O)NCCOCCOCCOCCNS(=O)(=O)c1ccc(O[C@H]2c3ccccc3C[C@@H]2N2CCCCC2)cc1	44.7 nM
CCOCCOCCOCCOCCC(=O)NCCOCCOCCNS(=O)(=O)c1ccc(OC2c3ccccc3C[C@@H]2N2CCCCC2)cc1 (some centres not stated)	50.1 nM
CN1Cc2c(Cl)cc(Cl)cc2C(c2cccc(S(=O)(=O)NCCOCCOCCOCCNC(=O)CCN(CCC(=O)NCCOCCOCCOCCNS(=O)(=O)c3cccc([C@@H]4CN(C)Cc5c(Cl)cc(Cl)cc54)c3)CCC(=O)NCCOCCOCCOCCNS(=O)(=O)c3cccc([C@@H]4CN(C)Cc5c(Cl)cc(Cl)cc54)c3)c2)C1 (some centres not stated)	316 nM
CCOCCOCCOCCOCCC(=O)NCCOCCOCCOCCNS(=O)(=O)c1ccc(O[C@H]2c3ccccc3C[C@@H]2N2CCCCC2)cc1	35.5 nM
CCOCCOCCC(=O)N(CCNC(=O)NCCOCCOCCNS(=O)(=O)c1cccc([C@@H]2CN(C)Cc3c(Cl)cc(Cl)cc32)c1)CCNC(=O)NCCOCCOCCNS(=O)(=O)c1cccc([C@@H]2CN(C)Cc3c(Cl)cc(Cl)cc32)c1	158 nM
CCOCCOCCOCCNC(=O)[C@H](O)[C@@H](O)C(=O)NCCOCCOCCOCCNS(=O)(=O)c1ccc(O[C@H]2c3ccccc3C[C@@H]2N2CCCCC2)cc1	20 nM
CCOCCN(CC(=O)NCCOCCOCCOCCNS(=O)(=O)c1cccc([C@@H]2CN(C)Cc3c(Cl)cc(Cl)cc32)c1)CC(=O)NCCOCCOCCOCCNS(=O)(=O)c1cccc([C@@H]2CCN(C)c3c(Cl)cc(Cl)cc32)c1	63.1 nM
CN(CCCNC(=O)NCCOCCOCCOCCNS(=O)(=O)c1cccc([C@@H]2CN(C)Cc3c(Cl)cc(Cl)cc32)c1)CCCNC(=O)NCCOCCOCCOCCNS(=O)(=O)c1cccc([C@@H]2CN(C)Cc3c(Cl)cc(Cl)cc32)c1	39.8 nM
CCOCCOCCOCCNC(=O)NCCCCNC(=O)NCCOCCOCCOCCNS(=O)(=O)c1ccc(O[C@H]2c3ccccc3C[C@@H]2N2CCCCC2)cc1	39.8 nM
